Our source for the EC50 and IC50 values is patent EP0494283B1, “1,4-BENZODIOXANE DERIVATIVES, PROCESS FOR THE PREPARATION THEREOF AND PHARMACEUTICAL COMPOSITIONS THEREFROM” (LABORATORIOS MENARINI S.A., priority 1990, dated 1992).

Common to all, as to format: cell-based
The subject of one test is HL-60 tumor cells. Description: Cytotoxic activity, Trypan Blue exclusion. As to conditions: Homo sapiens, read-out: Cytotoxicity EC₅₀. On the procedure: Suspensions of HL-60 Line cells, obtained starting from human promyelocyte leukemia, are incubated in 6-well culture plates for 24 hours at 37°C, at a concentration of 1 x 10⁶ cells/ml, in the presence of the test products, which have previously been dissolved in the culture medium. Cytotoxicity is measured by means of the Trypan Blue exclusion technique (Practical Immunology, pp 29-32, Oxford, England : Blackwell Scientific Publications, 1976).

Test [1] relates to PAF-induced platelet aggregation. Nature of the test: Inhibition of PAF-induced platelet aggregation (aggregometry, washed platelets). The settings on record: Oryctolagus cuniculus, rabbit washed platelets, on the maximum aggregation values of the PAF standard curve, read-out: Paf-antagonism IC₅₀. On the procedure: (§1) Platelets are prepared starting from blood samples obtained by means of a carotid cannula from male albino New Zealand rabbits (2-2.5 kg), subjected to anticoagulant treatment with sodium citrate dihydrate (3.2%) 1:10. Blood is centrifuged (150xg, 10 min, 22°C) to separate the platelet-rich plasma fraction (PRP) from erythrocytes. Platelets are separated from plasmatic components by serial washings and centrifugations (Blood, 1986, 62:337), thereafter they are suspended in a physiological buffer at a concentration of 5 x 10⁵/ml. A 400 µl volume of the above mentioned suspension is placed into the cuvette of a multicanal aggregometer (Aggrecoder HU) where it is kept at constant temperature and stirring. After stabilization, platelets are added with 50 µl of physiological buffer containing 100 µM acetylsalicylic acid and apirase 5 mg/ml, in order to block any non PAF-related platelet activation metabolic pathways. Subsequently the platelet suspensions are added with 50 µl of the different solutions to be tested. Changes in light transmission, due to platelet aggregation in the suspension, are recorded and expressed as percent platelet aggregation, according to the procedure by Born and Cross (J. Physiol., 1962, 162:67). Standard curve is performed with PAF within a concentration range of 0.1-1 nM.
Capability to inhibit PAF-induced platelet aggregation is evaluated by means of the aggregometry technique in suspensions of rabbit washed platelets, obtained by means of the same procedure as described in Example 32. For this purpose, the inhibition potency of the products under test, expressed as the corresponding IC₅₀, is evaluated on the maximum aggregation values obtained in PAF standard curve.

In another test the test system is rabbit washed platelets. Description: Platelet aggregating effect (aggregometry, washed platelets). As to conditions: Oryctolagus cuniculus, suspension of rabbit washed platelets, acetylsalicylic acid and apirase added, read-out: Aggregation EC₅₀. On the procedure: as §1
Setting [2] is: HL-60 cells, 1 x 10⁶ cells/ml, 24 hours at 37°C.

Where a name gives a salt, the structure may show the parent alone. Read-outs that look alike come from different tables or passages of the source.

`C[N+](C)(C)CCCCCCCCCCOCC1COc2ccccc2O1` (centres unmarked) [Example 4, N-[10-[[(1,4-Benzodioxan-2-yl)methyl]oxy]decyl]-N,N,N-trimethylammonium bromide]: the EC50 in the test on HL-60 tumor cells (HL-60, 24 h) was 70 µM. Besides, the IC50 in test [1] is 130 µM. With `C[N+](C)(C)CCCCCCCCCCCCCCCCOCC1COc2ccccc2O1` (centres unmarked) [Example 5, N-[16[[(1,4-Benzodioxan-2-yl)methyl]oxy]hexadecyl]-N,N,N-trimethylammonium bromide], the EC50 in the test with HL-60 tumor cells (HL-60, 24 h) was found to be 18 µM. Further, the IC50 in test [1] is 20 µM.

`C[N+](C)(C)CCCCCCOCCCCCCCCCCOCC1COc2ccccc2O1` (centres unmarked) [Example 6, N-[6-[[(10-[[1,4-Benzodioxan-2-yl)methyl]oxy]decyl]oxy]hexyl]-N,N,N-trimethylammonium bromide]: the EC50 in the test on HL-60 tumor cells (setting [2]) is 11 µM. The same measure, in the same setting: the same measure for `C[N+](C)(C)CCCCCCCCCCOCCCCCCCCCCOCC1COc2ccccc2O1` (centres unmarked) [Example 7, N-[10-[[10-[[(1,4-Benzodioxan-2-yl)methyl]oxy]decyl]oxy]decyl]-N,N,N-trimethylammonium bromide]: 15 µM. Turning to `CC[N+](CC)(CC)CCCCOCC1COc2ccccc2O1` (centres unmarked) [Example 8, N-[4-[[(1,4-Benzodioxan-2-yl)methyl]oxy]butyl]-N,N,N-triethylammonium bromide], the EC50 in the test with rabbit washed platelets was more than 190 µM.

Take `CC[N+](CC)(CC)CCCCCCCCCCOCC1COc2ccccc2O1` (centres unmarked) [Example 10, N-[10-[[(1,4-Benzodioxan-2-yl)methyl]oxy]decyl]-N,N,N-triethylammonium bromide]: the EC50 in the test on HL-60 tumor cells (HL-60, 24 h) came out at 30 µM. In addition, the IC50 in test [1] was 90 µM. For `c1ccc2c(c1)OCC(COCCCCCCCCCCN1CCCCC1)O2` (centres unmarked) [Example 15, N-[10-[[(1,4-Benzodioxan-2-yl)methyl]oxy]decyl]piperidine hydrochloride], the EC50 in the test on HL-60 tumor cells (setting [2]) came out at 20 µM. Still for that read-out and setting: in the case of `c1ccc2c(c1)OCC(COCCCCN1CCOCC1)O2` (centres unmarked) [Example 16, N-[4-[[(1,4-Benzodioxan-2-yl)methyl]oxy]butyl]morpholine hydrochloride] it was 18 µM; in that of `c1ccc2c(c1)OCC(COCCCCCCCCCCN1CCOCC1)O2` (centres unmarked) [Example 19, N-[10-[[(1,4-Benzodioxan-2-yl)methyl]oxy]decyl]morpholine hydrochloride], 30 µM. Regarding `C[N+]1(CCCCCOCC2COc3ccccc3O2)CCCCC1` (centres unmarked) [Example 21, N-[5-[[(1,4-Benzodioxan-2-yl)methyl]oxy]pentyl]-N-methylpiperidinium iodide], the EC50 in the test on rabbit washed platelets is more than 190 µM. As for `C[N+]1(CCCCCCCCCCOCC2COc3ccccc3O2)CCCCC1` (centres unmarked) [Example 23, N-[10-[[(1,4-Benzodioxan-2-yl)methyl]oxy]decyl]-N-methylpiperidinium bromide], in the test on HL-60 tumor cells (HL-60, 24 h), the EC50 is 20 µM. For the same compound, the IC50 in test [1] came to 75 µM. Take `C[N+]1(CCCCCCCCCCCCCCCCOCC2COc3ccccc3O2)CCCCC1` (centres unmarked) [Example 24, N-[16-[[(1,4-Benzodioxan-2-yl)methyl]oxy]hexadecyl]-N-methylpiperidinium bromide]: in the test on HL-60 tumor cells (setting [2]), the EC50 came out at 6 µM. In the case of `C[N+]1(CCCCCCOCCCCCCCCCCOCC2COc3ccccc3O2)CCCCC1` (centres unmarked) [Example 25, N-[6-[[(10-[[1,4-Benzodioxan-2-yl)methyl]oxy]decyl]oxy]hexyl]-N-methylpiperidinium bromide], the EC50 in the test on HL-60 tumor cells (setting [2]) is 3 µM. On the same count and under the same terms, in the case of `C[N+]1(CCCCCCCCCCOCCCCCCCCCCOCC2COc3ccccc3O2)CCCCC1` (centres unmarked) [Example 26, N-[10-[[10-[[(1,4-Benzodioxan-2-yl)methyl]oxy]decyl]oxy]decyl]-N-methylpiperidinium bromide] it was 28 µM. Take `C[N+]1(CCCCCCCCCCOCC2COc3ccccc3O2)CCOCC1` (centres unmarked) [Example 30, N-[10-[[(1,4-Benzodioxan-2-yl)methyl]oxy]decyl]-N-methylmorpholinium iodide]: the EC50 with HL-60 tumor cells (HL-60, 24 h) came to 30 µM. In addition, the IC50 in test [1] came out at 190 µM.
